Earlier results as cited in publication PMC11354262 (International Journal of Molecular Sciences, 2024).

Assays:
[1] = hydrolysis by enzymes in intestine and liver

SMILES: CCCCCCCCCCCCCCCC(=O)NCCO [PEA, Palmitoylethanolamide]
- lipid half-life [1]: about 25 min
- logarithm of partition coefficient (log P): > 5
- solubility in water: practically insoluble in water
